Source: PubChem BioAssay (NCI)
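Cells were grown in 96-well plates and exposed to each compound for 48 hours at five concentrations; endpoints were interpolated linearly between bracketing concentrations, or set to the highest concentration if not reached. TGI is the concentration that stops growth completely.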

How the values were obtained:
Experiment in all cases: NCI-60 cell line screen, 48 h
K-562 leukemia = system: K-562 leukemia
NCI-H460 lung = system: NCI-H460 lung
HCC-2998 colon = system: HCC-2998 colon
OVCAR-3 ovarian = system: OVCAR-3 ovarian
SR leukemia = system: SR leukemia
A549 NSCLC = system: A549 NSCLC
HT29 colon = system: HT29 colon
SF-539 CNS = system: SF-539 CNS
RXF 393 renal = system: RXF 393 renal
OVCAR-5 ovarian = system: OVCAR-5 ovarian
CAKI-1 renal = system: CAKI-1 renal
MOLT-4 leukemia = system: MOLT-4 leukemia
SNB-19 CNS = system: SNB-19 CNS
A498 renal = system: A498 renal
M19-MEL melanoma = system: M19-MEL melanoma
DMS 114 small cell lung = system: DMS 114 small cell lung
TK-10 renal = system: TK-10 renal
DMS 273 small cell lung = system: DMS 273 small cell lung
SK-MEL-2 melanoma = system: SK-MEL-2 melanoma
KM12 colon = system: KM12 colon
HOP-62 NSCLC = system: HOP-62 NSCLC
UO-31 renal = system: UO-31 renal
IGROV1 ovarian = system: IGROV1 ovarian
UACC-257 melanoma = system: UACC-257 melanoma
UACC-62 melanoma = system: UACC-62 melanoma
M14 melanoma = system: M14 melanoma
SK-MEL-28 melanoma = system: SK-MEL-28 melanoma
XF 498 CNS = system: XF 498 CNS
EKVX NSCLC = system: EKVX NSCLC
HCT-116 colon = system: HCT-116 colon
KM20L2 colon = system: KM20L2 colon
HCT-15 colon = system: HCT-15 colon
SW-620 colon = system: SW-620 colon
SF-268 CNS = system: SF-268 CNS
SF-295 CNS = system: SF-295 CNS
HOP-18 NSCLC = system: HOP-18 NSCLC
SN12C renal = system: SN12C renal
SNB-75 CNS = system: SNB-75 CNS
CCRF-CEM leukemia = system: CCRF-CEM leukemia
HOP-92 NSCLC = system: HOP-92 NSCLC
RPMI-8226 leukemia = system: RPMI-8226 leukemia
786-0 renal = system: 786-0 renal
ACHN renal = system: ACHN renal
MALME-3M melanoma = system: MALME-3M melanoma
NCI-H226 lung = system: NCI-H226 lung
OVCAR-4 ovarian = system: OVCAR-4 ovarian
HL-60(TB) leukemia = system: HL-60(TB) leukemia
OVCAR-8 ovarian = system: OVCAR-8 ovarian
NCI-H23 lung = system: NCI-H23 lung
DLD-1 colon = system: DLD-1 colon
LOX IMVI melanoma = system: LOX IMVI melanoma
LXFL 529 NSCLC = system: LXFL 529 NSCLC
SK-MEL-5 melanoma = system: SK-MEL-5 melanoma
SNB-78 CNS = system: SNB-78 CNS

Measured: TGI

CC1=C(C(=O)NCc2ccccc2)C(/C=C/c2ccccc2)C(C(=O)NCc2ccccc2)=C(C)N1
> 100 µM: all assays above
